The subject of one test is HEK293 cells. The test can be described thus: mWasabi fluorescence assay (protein expression of capped mRNA) in HEK293 cells. Conditions: mWasabi encoding mRNA capped with the cap analog, 24 hours post transfection, 12.5 ng mRNA per well. It is filed as cell-based. As for the experimental part: (§1) Wasabi and FLuc mRNAs capped with cap analog ARCA, cap analog A-1, cap analog A-2, cap analog 3′OMe, or cap analog A-Control (see Table 2) were prepared as described in International Patent Publication Nos. WO2017053297 and WO2023147352 which are incorporated herein by reference in their entirety.
(§2) The IVT template was used to prepare mWasabi encoding mRNA (970 nucleotides) with cap analogs A-control, 3′OMe, A-1 or A-2 by in-vitro transcription. The mRNAs were purified prior to use in assays described below. Protein expression was measured by Allele Biotechnology in cell-based assays.
(§3) mWasabi Fluorescence Assay:
(§4) The day before transfection: cells were seeded as follows: • HEK293 cells: 6.25×10^4/cm^2 • HeLa cells: 3.125×10^4/cm^2 • The cells were dissociated with TrypLE • HEK293 cells were seeded in 96 well plates coated with Poly-D-Lysine (50 μL at 100 μg/mL per well). • HeLa cells were seeded in 96 well plates (no coating required). • The cells were seeded in 100 μL of growth media (Growth Media: DMEM+10% FBS supplemented with GlutaMAX and MEM Non-Essential Amino Acids).
(§5) The day of transfection: Opti-MEM and MessengerMax Transfection Reagent were allowed to reach room temperature. Two tubes were set up for each mRNA (i.e., for each cap analog). […]
(§6) mWasabi fluorescent expression was quantified using Cytation 10 after 24 hours.

The subject of another test is HeLa cells. Briefly: mWasabi fluorescence assay (protein expression of capped mRNA) in HeLa cells. The settings on record: mWasabi encoding mRNA capped with the cap analog, 24 hours post transfection, 12.5 ng mRNA per well. It is filed as cell-based. As for the experimental part: as §1, §2, §3, §4, §5, §6

Turning to “^m7, N2-butylG3′OMeppp^m6A2′OMepG [Compound A-2]”, the “fluorescence intensity (i.e., protein expression levels)” value in the test with HEK293 cells is “comparable to that of mRNA capped with Cap 3′OMe or mRNA capped with A-control, and much higher than that of mRNA capped with ARCA cap”; with HeLa cells, “comparable to that of mRNA capped with Cap 3′OMe or mRNA capped with A-control, and much higher than that of mRNA capped with ARCA cap”.

For “^N7-(4-chlorobenzyl)G3′OMeppp^m6A2′OMepG [Compound A-1]”, the “fluorescence intensity (i.e., protein expression levels)” value in the test with HEK293 cells is “comparable to that of mRNA capped with Cap 3′OMe or mRNA capped with A-control, and much higher than that of mRNA capped with ARCA cap”; in the test on HeLa cells, “comparable to that of mRNA capped with Cap 3′OMe or mRNA capped with A-control, and much higher than that of mRNA capped with ARCA cap”.

For the origin of these results see US20250388620A1, “EFFICIENT METHOD FOR MAKING HIGHLY PURIFIED 5’- CAPPED OLIGONUCLEOTIDES” (TriLink BioTechnologies, LLC, priority 2022, published 2025).
